Tests used:
MCF7 = assay: Growth inhibition of human MCF7 cells at 10 uM after 24 hrs by MTS assay relative to control; assay type: functional; conditions: MCF7, 24 h, read-out: GI
SW480 = assay: Growth inhibition of human SW480 cells at 10 uM after 24 hrs by MTS assay relative to control; assay type: functional; conditions: SW480, 24 h, read-out: GI
HepG2 = assay: Growth inhibition of human HepG2 cells at 10 uM after 24 hrs by MTS assay relative to control; assay type: functional; conditions: HepG2, 24 h, read-out: GI
RAW264.7 = assay: Antiinflammatory activity in mouse RAW264.7 cells assessed as inhibition of LPS-induced NO production at 10 uM after 24 hrs by Griess reagent based assay relative to control; assay type: functional; conditions: RAW264.7, 24 h
Homo sapiens = organism: Homo sapiens; assay: Inhibition of LPS-induced NF-kappaB transcription (unknown origin) expressed in human SW480 cells at 10 uM by luciferase reporter gene assay; assay type: cell-based
[1] = target: T1, Tyrosine-protein phosphatase non-receptor type 1 (Homo sapiens) (UniProt P18031); assay: Inhibition of recombinant human PTP1B using p-nitrophenyl phosphate as substrate at 10 uM after 30 mins relative to control
T1 sequence (whole entry): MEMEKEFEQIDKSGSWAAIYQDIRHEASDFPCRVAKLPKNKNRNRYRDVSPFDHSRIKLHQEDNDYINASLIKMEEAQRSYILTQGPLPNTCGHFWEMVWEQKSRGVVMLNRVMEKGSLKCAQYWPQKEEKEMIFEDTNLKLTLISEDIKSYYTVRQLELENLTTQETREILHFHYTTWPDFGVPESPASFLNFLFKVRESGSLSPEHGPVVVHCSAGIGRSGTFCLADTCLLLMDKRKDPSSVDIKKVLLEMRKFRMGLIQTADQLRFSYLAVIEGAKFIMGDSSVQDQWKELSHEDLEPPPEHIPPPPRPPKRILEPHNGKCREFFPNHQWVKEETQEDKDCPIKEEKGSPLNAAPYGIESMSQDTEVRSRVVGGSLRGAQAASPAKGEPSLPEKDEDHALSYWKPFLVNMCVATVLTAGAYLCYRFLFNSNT

[2] = target: Mushroom tyrosinase (Agaricus bisporus) (UniProt O42713+Q00024+C7FF04+C7FF05); assay: Inhibition of mushroom tyrosinase at 10 uM using L-tyrosine as substrate incubated for 15 mins followed by substrate addition relative to control

Compound	inhibition of growth at 10 µM (MCF7)	inhibition of growth at 10 µM (SW480)	inhibition of growth at 10 µM (HepG2)	inhibition at 10 µM (RAW264.7)	inhibition (Homo sapiens)	inhibition [1]	inhibition [2]
CC(C)=CCc1c(O)ccc(-c2coc3cc(O)ccc3c2=O)c1O	36%	35%	11%	25%	3%	56%	6%
CC(C)=CCc1cc([C@@H]2CC(=O)c3ccc(O)cc3O2)ccc1O [ABYSSINONE II]	25%	22%	4%	8%	0%	5%	4%
COc1cc([C@H]2COc3cc(O)ccc3C2)ccc1O	14%	24%	3%	23%	0%	2%	6%
CC(C)=CCc1cc2c(=O)cc(-c3ccc4c(c3)C=CC(C)(C)O4)oc2cc1O	7%	51%	11%	1%	3%	33%	9%
COc1c(/C=C/C(=O)c2ccc(O)cc2)ccc(O)c1CC=C(C)C	26%	25%	22%	1%	9%	20%	5%
CC(C)=CCc1cc([C@@H]2CC(=O)c3ccc(O)cc3O2)cc2c1OC(C)(C)C=C2 [ABYSSINONES III]	0%	26%	9%	17%	28%	43%	6%
COc1ccc(-c2coc3c(O)c(O)c(CC=C(C)C)cc3c2=O)cc1	4%	51%	48%	17%	21%	74%	7%
O=C(/C=C/c1ccc(O)cc1)c1ccc(O)cc1O [ISOLIQUIRITIGENIN]	0%	16%	0%	14%	6%	48%	12%
COc1cc(O)c(-c2coc3cc(O)ccc3c2=O)c(OC)c1CC=C(C)C	33%	0%	0%	14%	3%	18%	15%
COc1ccc(-c2coc3cc(O)ccc3c2=O)cc1 [FORMONONETIN]	2%	4%	0%	0%	3%	33%	10%
O=C1C[C@@H](c2ccc(O)cc2)Oc2cc(O)cc(O)c21 [NARINGENIN]	21%	28%	28%	6%	22%	43%	10%
COc1ccc(-c2coc3cc(O)ccc3c2=O)c(O)c1 [XENOGNOSIN B]	1%	13%	0%	1%	4%	47%	11%
CC(C)=CCc1c(O)cc2occ(-c3ccc(O)cc3)c(=O)c2c1O [WIGHTEONE]	17%	34%	6%	0%	11%	19%	15%
O=C1C[C@@H](c2cc(O)cc(O)c2)Oc2cc(O)ccc21	13%	4%	0%	15%	1%	2%	12%
CC(C)=CCc1c(O)ccc(-c2coc3cc(O)c(CC=C(C)C)c(O)c3c2=O)c1O	4%	46%	0%	0%	15%	78%	2%
COc1ccc2c(c1)OC[C@H]1c3ccc(O)cc3O[C@@H]21	20%	17%	5%	3%	0%	2%	31%
CC1(C)C=Cc2cc(-c3coc4cc(O)ccc4c3=O)cc(O)c2O1	0%	5%	14%	22%	23%	0%	0%
CC1(C)C=Cc2c(ccc(-c3coc4cc(O)cc(O)c4c3=O)c2O)O1 [LICOISOFLAVONE B]	14%	13%	13 to 14%	10%	4%	69%	14%
CC1(C)[C@@H](OC=O)CC[C@]2(C)[C@H]3C(=O)C=C4[C@@H]5C[C@@](C)(C(=O)O)CC[C@]5(C)CC[C@@]4(C)[C@]3(C)CC[C@@H]12	17%	3%	13%	2%	0%	3%	0%
CC1(C)C(=O)CC[C@]2(C)[C@H]3C(=O)C=C4[C@@H]5C[C@@](C)(C(=O)O)CC[C@]5(C)CC[C@@]4(C)[C@]3(C)[C@@H](O)C[C@@H]12	25%	48%	1%	6%	28%	1%	5%
CC(C)=CCc1cc2c(=O)cc(-c3ccc(O)cc3)oc2cc1O [LICOFLAVANONE A]	0%	30%	5%	11%	7%	79%	17%
CC(C)=CCc1c(O)cc(O)c2c(=O)c(-c3ccc(O)cc3)coc12	23%	13%	23%	18%	25%	0%	16%
CC1(C)C=Cc2c(O)ccc([C@@H]3COc4cc(O)cc(O)c4C3=O)c2O1	13%	8%	6%	2%	24%	1%	9%
CC(C)=CCc1c(O)cc2occ(-c3ccc4c(c3)C=CC(C)(C)O4)c(=O)c2c1O [ISOCHANDALON]	73%	58 to 81%	7%	0%	3%	94%	3%
